For this assay, the target named is T1, IL-17A/A (Homo sapiens, UniProt Q16552).
T1 construct: purchased Genscript Z03228
T1 sequence (Q16552 24-155): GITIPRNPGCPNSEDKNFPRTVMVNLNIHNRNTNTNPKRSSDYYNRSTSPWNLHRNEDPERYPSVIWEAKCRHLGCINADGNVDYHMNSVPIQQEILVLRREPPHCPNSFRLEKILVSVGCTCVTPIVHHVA
The assay can be described thus: IL-17A/A HEK-Blue cell assay. It is filed as cell-based. The note with it: HEK-Blue IL-17A reporter cell line (HEK 293), IL-17A/A stimulation, 20 hours incubation, SEAP read at A630. In outline: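 IC50 came from a 4-parameter fit of SEAP read at A630 (Quanti-Blue). Compound was titrated to a top final concentration of 10, 1 or 0.3 uM with 0.1% final DMSO and added just before IL-17A/A. Incubation lasted 20 hours in HEK293 cells engineered with IL-17RA, IL-17RC, Act1 and an NFκB-SEAP reporter.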
In general, IC50 refers to the concentration that gives 50% inhibition. Consider `CCn1nccc1C(=O)N[C@H](c1cn2nc(CC3C[C@@H](C(F)(F)F)CNC3=O)ccc2n1)[C@@H]1CCCC(F)(F)C1` (stereo partly drawn) [Compound 194, N-((1S)—((R)-3,3-difluorocyclohexyl)(6-(((5R)-2-oxo-5-(trifluoromethyl)piperidin-3-yl)methyl)imidazo[1,2-b]pyridazin-2-yl)methyl)-1-ethyl-1H-pyrazole-5-carboxamide], for which the IC50 was over 1 µM.
In the case of `CCn1nccc1C(=O)N[C@H](c1cn2nc(CC3C[C@@H](C(F)(F)F)CNC3=O)c(C(C)(C)O)cc2n1)C1CCC(F)(F)CC1` (stereo partly drawn) [Compound 186, N-((1S)-(4,4-difluorocyclohexyl)(7-(2-hydroxypropan-2-yl)-6-(((5R)-2-oxo-5-(trifluoromethyl)piperidin-3-yl)methyl)imidazo[1,2-b]pyridazin-2-yl)methyl)-1-ethyl-1H-pyrazole-5-carboxamide] it was under 0.1 µM; in that of `CCn1nccc1C(=O)N[C@H](c1cn2nc(CC3C[C@@H](C(F)(F)F)CNC3=O)c(N(C)C3CC3)cc2n1)C1CCC(F)(F)CC1` (single isomer, unassigned) [Compound 90], 0.1 to 1 µM; in that of `CCn1nccc1C(=O)N[C@H](c1cn2nc(CC3C[C@@H](C(F)(F)F)NC3=O)ccc2n1)[C@H]1CC[C@H](C)CC1` (single isomer, unassigned) [Compound 16], 0.1 to 1 µM.
For `CCn1nccc1C(=O)N[C@H](c1cn2nc(CC3CC(F)(F)CNC3=O)ccc2n1)C1CCC(F)(F)CC1` (single isomer, unassigned) [Compound 24] the value was over 1 µM; for `C[C@H]1CC[C@H]([C@H](NC(=O)c2nonc2N)c2cn3nc(CC4C[C@@H](C(F)(F)F)CNC4=O)ccc3n2)CC1` (stereo partly drawn) [Compound 164, 4-amino-N-((1S)—((1R.4S)-4-methylcyclohexyl)(6-(((5R)-2-oxo-5-(trifluoromethyl)piperidin-3-yl)methyl)imidazo[1,2-b]pyridazin-2-yl)methyl)-1,2,5-oxadiazole-3-carboxamide], over 1 µM.
`Cn1nccc1C(=O)N[C@H](c1cn2nc(CC3C[C@@H](C(F)(F)F)CNC3=O)ccc2n1)[C@H]1CC[C@H](C)CC1` (stereo partly drawn) [Compound 162, 1-methyl-N-((1S)-((1R.4S)-4-methylcyclohexyl)(6-(((5R)-2-oxo-5-(trifluoromethyl)piperidin-3-yl)methyl)imidazo[1,2-b]pyridazin-2-yl)methyl)-1H-pyrazole-5-carboxamide]: the 50% inhibitory concentration (IC50) is 0.1 to 1 µM.
Turning to `O=C(N[C@H](c1cn2nc(CC3C[C@@H](C(F)(F)F)CNC3=O)ccc2n1)C1CCC(F)(F)CC1)c1conc1CCF` (stereo partly drawn) [Compound 110, N-((1S)-(4,4-difluorocyclohexyl)(6-(((5R)-2-oxo-5-(trifluoromethyl)piperidin-3-yl)methyl)imidazo[1,2-b]pyridazin-2-yl)methyl)-3-(2-fluoroethyl)isoxazole-4-carboxamide], the 50% inhibitory concentration (IC50) lay within 0.1 to 1 µM.
For the compound `Cc1nonc1C(=O)N[C@H](c1cn2nc(CC3CCCNC3=O)ccc2n1)C1CCCCCC1` (stereo partly drawn) [Compound 2, N-((1S)-cycloheptyl(6-((2-oxopiperidin-3-yl)methyl)imidazo[1,2-b]pyridazin-2-yl)methyl)-4-methyl-1,2,5-oxadiazole-3-carboxamide], the concentration for half-maximal inhibition (IC50) is over 1 µM.
As to `CCn1nccc1C(=O)NC(c1cn2nc(CC3CC(F)(F)CNC3=O)ccc2n1)C1CCC(C)CC1` (single isomer, unassigned) [Compound 27], the half-maximal inhibitory concentration (IC50) lay within 0.1 to 1 µM.
For `CCn1nccc1C(=O)N[C@H](c1cn2nc(CC3C[C@H](C(F)(F)F)CNC3=O)ccc2n1)[C@H]1CC[C@H](C)CC1` (stereo partly drawn) [Compound 154, 1-Ethyl-N-((1S)-((1R.4S)-4-methylcyclohexyl)(6-(((5S)-2-oxo-5-(trifluoromethyl)piperidin-3-yl)methyl)imidazo[1,2-b]pyridazin-2-yl)methyl)-1H-pyrazole-5-carboxamide] the value was under 0.1 µM; for `CCn1nccc1C(=O)N[C@H](c1cn2nc(CC3C[C@@H](C(F)(F)F)CNC3=O)c(C(C)OC)cc2n1)C1CCC(F)(F)CC1` (stereo partly drawn) [Compound 183, N-((1S)-(4,4-difluorocyclohexyl)(7-(1-methoxyethyl)-6-(((5R)-2-oxo-5-(trifluoromethyl)piperidin-3-yl)methyl)imidazo[1,2-b]pyridazin-2-yl)methyl)-1-ethyl-1H-pyrazole-5-carboxamide], under 0.1 µM.
For `O=C(N[C@H](c1cn2nc(CC3C[C@@H](C(F)(F)F)CNC3=O)ccc2n1)C1CCC(F)(F)CC1)c1conc1C1(C(F)(F)F)CC1` (stereo partly drawn) [Compound 138, N-((1S)-(4,4-difluorocyclohexyl)(6-(((5R)-2-oxo-5-(trifluoromethyl)piperidin-3-yl)methyl)imidazo[1,2-b]pyridazin-2-yl)methyl)-3-(1-(trifluoromethyl)cyclopropyl)isoxazole-4-carboxamide] the value was 0.1 to 1 µM.
For `CCn1nccc1C(=O)N[C@H](c1cn2nc(CC3CC(F)(F)CNC3=O)c(NC)cc2n1)C1CCC(F)(F)CC1` (single isomer, unassigned) [Compound 73] the value was 0.1 to 1 µM; for `CCn1nccc1C(=O)N[C@H](c1cn2nc(CC3C[C@@H](C(F)(F)F)CNC3=O)ccc2n1)[C@@H]1CCCC(F)(F)C1` (stereo partly drawn) [Compound 143, N-((1S)—((R)-3,3-difluorocyclohexyl)(6-(((5R)-2-oxo-5-(trifluoromethyl)piperidin-3-yl)methyl)imidazo[1,2-b]pyridazin-2-yl)methyl)-1-ethyl-1H-pyrazole-5-carboxamide], under 0.1 µM; for `CC(C)n1nncc1C(=O)N[C@H](c1cn2nc(CC3C[C@@H](C(F)(F)F)CNC3=O)ccc2n1)[C@H]1CC[C@H](C)CC1` (stereo partly drawn) [Compound 163, N-((1S)-((1R.4S)-4-methylcyclohexyl)(6-(((5R)-2-oxo-5-(trifluoromethyl)piperidin-3-yl)methyl)imidazo[1,2-b]pyridazin-2-yl)methyl)-1-isopropyl-1H-1,2,3-triazole-5-carboxamide], 0.1 to 1 µM.
Turning to `CCn1nccc1C(=O)N[C@H](c1cn2nc(CC3CC(C(C)(F)F)NC3=O)ccc2n1)C1CCC(F)(F)CC1` (single isomer, unassigned) [Compound 69], the IC50 was 0.1 to 1 µM.
In the case of `CCn1nccc1C(=O)N[C@H](c1cn2nc(CC3C[C@@H](C(F)(F)F)CNC3=O)c(C)cc2n1)C1CCC(F)(F)CC1` (single isomer, unassigned) [Compound 83] it was 0.1 to 1 µM; in that of `CC(C)n1nccc1C(=O)N[C@H](c1cn2nc(CC3C[C@@H](C(F)(F)F)CNC3=O)ccc2n1)[C@H]1CCCC(F)(F)C1` (stereo partly drawn) [Compound 148, N-((1S)—((S)-3,3-difluorocyclohexyl)(6-(((5R)-2-oxo-5-(trifluoromethyl)piperidin-3-yl)methyl)imidazo[1,2-b]pyridazin-2-yl)methyl)-1-isopropyl-1H-pyrazole-5-carboxamide], under 0.1 µM; in that of `CCn1nccc1C(=O)N[C@H](c1cn2nc(CC3CC(C4CC4)CNC3=O)ccc2n1)C1CCC(F)(F)CC1` (single isomer, unassigned) [Compound 70], 0.1 to 1 µM.

The values are drawn from patent US20250346602A1, “LACTAM SUBSTITUTED IMIDAZOPYRIDAZINE IL-17A MODULATORS AND USES THEREOF” (DICE ALPHA, INC., priority 2022, published 2025).
